Twelve compounds from patent US20210053957A1, “HERBICIDAL COMPOUNDS” (SYNGENTA PARTICIPATIONS AG, priority 2018, published 2021) can be followed below.

Experiment in all cases: Post-emergence efficacy, glasshouse spray test
Common to all, as to assay type: in vivo

For assay [1], the system named is Digitaria sanguinalis (DIGSA). Conditions: Application Rate 500 g/Ha, evaluated after 13 days; for pest or weed control at 500 g/ha: Digitaria sanguinalis, post-emergence, 312 h, read-out: Control of weed species after post-emergence application, DIGSA (100=total damage to plant; 0=no damage to plant). As to the method:
(§1) Seeds of a variety of test species were sown in standard soil in pots. After cultivation for 14 days (post-emergence) under controlled conditions in a glasshouse (at 24/16° C. day/night; 14 hours light; 65% humidity), the plants were sprayed with an aqueous spray solution derived from the dissolution of the technical active ingredient formula (I) in a small amount of acetone and a special solvent and emulsifier mixture referred to as IF50 (11.12% Emulsogen EL360 TM+44.44% N-methyl pyrrolidone+44.44% Dowanol DPM glycolether), to create a 50 g/l solution which was then diluted to required concentration using 0.25% or 1% Empicol ESC70 (Sodium lauryl ether sulphate)+1% ammonium sulphate as diluent. The test plants were then grown in a glasshouse under controlled conditions (at 24/16° C., day/night; 14 hours light; 65% humidity) and watered twice daily. After 13 days the test was evaluated (100=total damage to plant; 0=no damage to plant).
(§2) Ipomoea hederacea (IPOHE), Euphorbia heterophylla (EPHHL), Chenopodium album (CHEAL), Amaranthus palmeri (AMAPA), Lolium perenne (LOLPE), Digitaria sanguinalis (DIGSA), Eleusine indica (ELEIN), Echinochloa crus-galli (ECHCG), Setaia fabei (SETFA)

The test system of a further assay is Lolium perenne (LOLPE). Conditions: Application Rate 500 g/Ha, evaluated after 13 days; for pest or weed control at 500 g/ha: Lolium perenne, post-emergence, 312 h, read-out: Control of weed species after post-emergence application, LOLPE (100=total damage to plant; 0=no damage to plant). As to the method: as §1, §2
In assay [2] the test system is Echinochloa crus-galli (ECHCG). Conditions: Application Rate 500 g/Ha, evaluated after 13 days; for pest or weed control at 500 g/ha: Echinochloa crus-galli, post-emergence, 312 h, read-out: Control of weed species after post-emergence application, ECHCG (100=total damage to plant; 0=no damage to plant). On the procedure: as §1, §2
Assay [3] relates to Amaranthus palmeri (AMAPA). Conditions: Application Rate 500 g/Ha, evaluated after 13 days; for pest or weed control at 500 g/ha: Amaranthus palmeri, post-emergence, 312 h, read-out: Control of weed species after post-emergence application, AMAPA (100=total damage to plant; 0=no damage to plant). On the procedure:
as §1, §2

Assay [4] relates to Euphorbia heterophylla (EPHHL). As to conditions: Application Rate 500 g/Ha, evaluated after 13 days; for pest or weed control at 500 g/ha: Euphorbia heterophylla, post-emergence, 312 h, read-out: Control of weed species after post-emergence application, EPHHL (100=total damage to plant; 0=no damage to plant). As to the method:
as §1, §2

A further assay has as its system Eleusine indica (ELEIN). Conditions: Application Rate 500 g/Ha, evaluated after 13 days; for pest or weed control at 500 g/ha: Eleusine indica, post-emergence, 312 h, read-out: Control of weed species after post-emergence application, ELEIN (100=total damage to plant; 0=no damage to plant). On the procedure: as §1, §2
A further assay relates to Setaia fabei (SETFA). As to conditions: Application Rate 500 g/Ha, evaluated after 13 days; for pest or weed control at 500 g/ha: Setaria faberi, post-emergence, 312 h, read-out: Control of weed species after post-emergence application, SETFA (100=total damage to plant; 0=no damage to plant). As to the method: as §1, §2
In assay [5] the test system is Chenopodium album (CHEAL). As to conditions: Application Rate 500 g/Ha, evaluated after 13 days; for pest or weed control at 500 g/ha: Chenopodium album, post-emergence, 312 h, read-out: Control of weed species after post-emergence application, CHEAL (100=total damage to plant; 0=no damage to plant). On the procedure:
as §1, §2

The subject of assay [6] is Ipomoea hederacea (IPOHE). As to conditions: Application Rate 500 g/Ha, evaluated after 13 days; for pest or weed control at 500 g/ha: Ipomoea hederacea, post-emergence, 312 h, read-out: Control of weed species after post-emergence application, IPOHE (100=total damage to plant; 0=no damage to plant). On the procedure: as §1, §2

Structures can show the parent of a compound that is named as a salt.

For `COC(=O)c1ccccc1C[n+]1ccc(-c2ncco2)cn1` [Compound A95], the pest or weed control at 500 g/ha is 30% in assay [1]; 0% in the assay on Lolium perenne (LOLPE); 10% in assay [2]; 10% in assay [3]; 30% in [4]; 10% in the assay on Eleusine indica (ELEIN). The pest or weed control at 500 g/ha in the assay with Setaia fabei (SETFA) was 20%; in assay [5] it was 0%; in assay [6], 10%.

In the case of `Cc1nc(-c2cc[n+](CCS(=O)(=O)[O-])nc2)sc1C` [Compound A17], the pest or weed control at 500 g/ha in assay [1] was determined as 50%; in the assay on Lolium perenne (LOLPE) it was 50%; in assay [2], 40%; in assay [3], 30%; in [4], 40%; in the assay on Eleusine indica (ELEIN), 60%. Moreover, the results for the pest or weed control at 500 g/ha (with Setaia fabei (SETFA); in assay [5]; in [6]) were 50%, 30% and 30%, respectively.

Take `O=S(=O)([O-])OCC[n+]1ccc(-c2ncno2)cn1` [Compound A8, 2-[4-(1,2,4-oxadiazol-5-yl)pyridazin-1-ium-1-yl]ethyl sulfate]: the pest or weed control at 500 g/ha in assay [1] was 50%; in the assay with Lolium perenne (LOLPE) it was 10%; in assay [2] it was 50%; in [3] it was 10%; in assay [4], 30%; in the assay with Eleusine indica (ELEIN), 20%. The pest or weed control at 500 g/ha stood at 40% with Setaia fabei (SETFA), 10% in assay [5] and 30% in assay [6].

Consider `O=C(O)CC[n+]1ccc(-c2cnsc2)cn1` [Compound A62], for which the pest or weed control at 500 g/ha in assay [1] was 10%; in the assay with Lolium perenne (LOLPE) it was 0%; in assay [2], 0%; in [3] it was 0%; in assay [4] it was 40%; in the assay with Eleusine indica (ELEIN), 0%. In addition, the pest or weed control at 500 g/ha worked out at 0% in the assay on Setaia fabei (SETFA), 20% in [5] and 20% in [6].

Turning to `CCOC(=O)c1oc(-c2cc[n+](CCC(=O)OC)nc2)nc1C` [Compound A131], the pest or weed control at 500 g/ha was 30% in [1]; 10% in the assay with Lolium perenne (LOLPE); 20% in assay [2]; 10% in assay [3]; 10% in [4]; 10% in the assay on Eleusine indica (ELEIN). Further, the results for the pest or weed control at 500 g/ha (in the assay with Setaia fabei (SETFA); in assay [5]; in [6]) were 20%, 0% and 10%, respectively.

`O=S(=O)([O-])CC[n+]1ccc(-c2nc(C(F)(F)F)co2)cn1` [Compound A57]: the pest or weed control at 500 g/ha in [1] came out at 70%; with Lolium perenne (LOLPE), 50%; in assay [2] it was 80%; in [3], 100%; in [4], 90%; in the assay on Eleusine indica (ELEIN), 60%. Also, the results for the pest or weed control at 500 g/ha (with Setaia fabei (SETFA); in assay [5]; in [6]) were 60%, 100% and 60%, respectively.

Consider `O=S(=O)([O-])CC[n+]1ccc(-c2cnsc2)cn1` [Compound A60], for which the pest or weed control at 500 g/ha came out at 50% in assay [1]; 30% in the assay with Lolium perenne (LOLPE); 40% in assay [2]; 90% in assay [3]; 50% in assay [4]; 70% with Eleusine indica (ELEIN). The pest or weed control at 500 g/ha in the assay on Setaia fabei (SETFA) came out at 50%; in [5], 90%; in [6], 10%.

`COC(=O)CCC[n+]1ccc(-c2nc(C)co2)cn1` [Compound A128]: the pest or weed control at 500 g/ha is 90% in assay [1]; 60% in the assay with Lolium perenne (LOLPE); 80% in [2]; 90% in assay [3]; 70% in assay [4]; 100% in the assay with Eleusine indica (ELEIN). For the same compound, the figures for the pest or weed control at 500 g/ha (with Setaia fabei (SETFA); in assay [5]; in assay [6]) were 90%, 20% and 20%, respectively.

`Nc1nnc(-c2cc[n+](CCS(=O)(=O)[O-])nc2)s1` [Compound A65]: the pest or weed control at 500 g/ha in assay [1] came to 100%; in the assay with Lolium perenne (LOLPE), 90%; in assay [2], 60%; in assay [3] it was 80%; in [4], 90%; with Eleusine indica (ELEIN) it was 100%. Moreover, the pest or weed control at 500 g/ha with Setaia fabei (SETFA) is 100%; in assay [5] it was 70%; in assay [6], 60%.

For the compound `COP(=O)(O)CCC[n+]1ccc(-c2ncco2)cn1` [Compound A86], the pest or weed control at 500 g/ha was 30% in [1]; 20% in the assay with Lolium perenne (LOLPE); 10% in assay [2]; 40% in [3]; 30% in [4]; 20% in the assay with Eleusine indica (ELEIN). Moreover, the values for the pest or weed control at 500 g/ha (in the assay on Setaia fabei (SETFA); in assay [5]; in [6]) were 20%, 30% and 40%, respectively.

For `COP(=O)(CC[n+]1ccc(-c2ncco2)cn1)OC.O=C([O-])C(F)(F)F` [Compound A108], the “Control of weed species after post-emergence application, DIGSA (100=total damage to plant; 0=no damage to plant)” value in assay [1] was found to be 60. Besides, the “Control of weed species after post-emergence application, LOLPE (100=total damage to plant; 0=no damage to plant)” value in the assay on Lolium perenne (LOLPE) was determined as 10. The “Control of weed species after post-emergence application, ECHCG (100=total damage to plant; 0=no damage to plant)” value in [2] is reported as 30. Moreover, the “Control of weed species after post-emergence application, AMAPA (100=total damage to plant; 0=no damage to plant)” value in assay [3] amounted to 20. The “Control of weed species after post-emergence application, EPHHL (100=total damage to plant; 0=no damage to plant)” value in assay [4] worked out at 30. Moreover, in the assay on Eleusine indica (ELEIN), the “Control of weed species after post-emergence application, ELEIN (100=total damage to plant; 0=no damage to plant)” value was determined as 20. The “Control of weed species after post-emergence application, SETFA (100=total damage to plant; 0=no damage to plant)” value with Setaia fabei (SETFA) was 30. Further, the “Control of weed species after post-emergence application, CHEAL (100=total damage to plant; 0=no damage to plant)” value in assay [5] was found to be 20. Further, the “Control of weed species after post-emergence application, IPOHE (100=total damage to plant; 0=no damage to plant)” value in assay [6] was determined as 30.

As for `Cc1coc(-c2cc[n+](CCCS(=O)(=O)[O-])nc2)n1` [Compound A136], the pest or weed control at 500 g/ha in assay [1] is 70%; in the assay with Lolium perenne (LOLPE), 60%; in assay [2], 40%; in [3], 70%; in assay [4], 70%; in the assay on Eleusine indica (ELEIN), 60%. The pest or weed control at 500 g/ha in the assay with Setaia fabei (SETFA) is 80%; in [5], 30%; in [6], 20%.
